Measured values reported in patent US20250074911A1, “MACROCYCLIC BTK INHIBITORS” (Crossfire Oncology Holding B.V., priority 2021, published 2025).
Several values for one entry are separate records, joined by “and”; a condition that tells them apart may be missing. Equal entries are not always repeated.

Key:
BTK T474I = BTK T474I (Homo sapiens (Human), UniProt Q06187, T474I); experiment: Binding kinetics measurements (Surface Plasmon Resonance) on BTK T474I; conditions: for Tau (h) BTK T474I (Act): target residence time, SPR; for Kd: binding affinity by Surface Plasmon Resonance (SPR)
Sequence of BTK T474I (Q06187 whole entry T474I): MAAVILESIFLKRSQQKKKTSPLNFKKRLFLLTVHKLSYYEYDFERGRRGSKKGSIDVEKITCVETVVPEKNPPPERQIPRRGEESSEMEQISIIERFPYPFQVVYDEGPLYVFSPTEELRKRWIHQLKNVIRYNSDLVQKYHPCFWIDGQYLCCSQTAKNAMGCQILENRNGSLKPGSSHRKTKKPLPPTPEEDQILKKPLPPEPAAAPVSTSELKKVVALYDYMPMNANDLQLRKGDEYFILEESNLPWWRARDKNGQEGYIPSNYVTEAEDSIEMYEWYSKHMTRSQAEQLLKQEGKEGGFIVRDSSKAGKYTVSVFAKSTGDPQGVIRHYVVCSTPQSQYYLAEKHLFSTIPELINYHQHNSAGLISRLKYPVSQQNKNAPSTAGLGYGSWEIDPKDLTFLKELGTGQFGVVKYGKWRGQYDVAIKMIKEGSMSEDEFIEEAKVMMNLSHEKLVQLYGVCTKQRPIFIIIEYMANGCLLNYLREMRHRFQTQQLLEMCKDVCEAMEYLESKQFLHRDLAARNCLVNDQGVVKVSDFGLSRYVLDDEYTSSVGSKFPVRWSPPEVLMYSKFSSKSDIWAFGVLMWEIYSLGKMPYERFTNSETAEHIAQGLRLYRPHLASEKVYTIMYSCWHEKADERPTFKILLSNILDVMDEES
Procedure: (§1) Binding kinetics measurements on wt-BTK, BTK […], BTK […], BTK […] and BTK […] (Surface Plasmon Resonance) Streptavidin-coated chips (Cat. No. BR100531), disposables and maintenance kits for Biacore were purchased from Cytiva (Eindhoven, The Netherlands). […] Remaining streptavidin was blocked with biocytin. Immobilization was performed at 4° C. Subsequent assay steps were conducted at 22° C. After changing buffer to Biacore buffer with 1% (v/v) dimethylsulfoxide (DMSO), a pre-run was performed for a period of at least 30 min at a flow rate of 30 μl/min to obtain a stable surface. The kinetic constants of the compounds were determined with single cycle kinetics with five consecutive injections with an increasing compound concentration with ranges of 3.16-316 nM. […] To circumvent problems of mass transport limitation, a flow rate of 30 μl/min was used. A blank run with the same conditions was performed before the compound was injected. The SPR sensorgrams were analyzed with Biacore Evaluation Software by using a method of double referencing. First the reference channel was subtracted from the channel containing immobilized protein. Subsequently, the reference curve obtained with buffer injections was subtracted. […] Compounds that bound according to an induced fit model were fitted with a two-state reaction model. The kinetic constants (ka, […], KD) of duplicates were geometrically averaged. […] Target residence for an induced fit model was calculated as described (Tummino and Copeland, 2008).

[1] = target: full-length BTK C481S enzyme (Homo sapiens (Human), UniProt Q06187, C481S); experiment: Biochemical kinase assay BTK C481S (IMAP)
Sequence of full-length BTK C481S enzyme (Q06187 whole entry C481S): as the sequence (Q06187 whole entry T474I) above, with I474T, C481S counted along it
How it was run: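 Full-length BTK C481S (1.2 nM) was pre-incubated with compound for 1 h at room temperature in the dark, then reacted with fluorescein-labelled MBP-derived peptide (50 nM) and ATP (7 μM) for 2 h. Reactions were quenched with IMAP binding solution, and IC50 values were derived from fluorescence polarization.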

[2] = test system: wt-TMD8 diffuse large B-cell lymphoma cells; experiment: Cell proliferation assay wt-TMD8 (ATPlite, 120 hours); format: cell-based; conditions: B-cell; wt-TMD8 cells, 120 hours, ATPlite; read-out: IC50 wt-TMD8
How it was run: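 wt-TMD8 DLBCL cells, 1600 per well in RPMI-1640 with 10% FBS, rested ≥5 h then exposed to compound for 120 h at 37° C, 5% CO2. Viability read by ATPlite luminescence; percentage growth calculated relative to start-of-incubation signal and untreated 0.3% DMSO maximum growth.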

wt-BTK = wt-BTK (Homo sapiens (Human), UniProt Q06187); experiment: Binding kinetics measurements (Surface Plasmon Resonance) on wt-BTK; conditions: for Tau (h) wt-BTK (Act): target residence time, SPR; for Kd: binding affinity by Surface Plasmon Resonance (SPR)
Sequence of wt-BTK (Q06187 whole entry): as the sequence (Q06187 whole entry T474I) above, with I474T counted along it
Procedure: as §1

[3] = target: full-length wt-BTK enzyme (Homo sapiens (Human), UniProt Q06187); experiment: Biochemical kinase assay wt-BTK (IMAP)
Sequence of full-length wt-BTK enzyme (Q06187 whole entry): as the sequence (Q06187 whole entry T474I) above, with I474T counted along it
How it was run: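 IMAP fluorescence polarization assay: 1.2 nM enzyme pre-incubated 1 h with compound at room temperature, then 50 nM fluorescein-labeled MBP-derived peptide and 4 μM ATP added. Reaction ran 2 h at room temperature in the dark before quenching with IMAP binding solution.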

BTK C481S = BTK C481S (Homo sapiens (Human), UniProt Q06187, C481S); experiment: Binding kinetics measurements (Surface Plasmon Resonance) on BTK C481S; conditions: for Tau (h) BTK C418S (Act): target residence time for BTK C481S, SPR; for Kd: binding affinity by Surface Plasmon Resonance (SPR)
Sequence of BTK C481S (Q06187 whole entry C481S): as the sequence (Q06187 whole entry T474I) above, with I474T, C481S counted along it
Procedure: as §1

[4] = test system: wt-REC-1 mantle cell lymphoma cells; experiment: Cell proliferation assay wt-REC-1 (ATPlite, 72 hours); format: cell-based; conditions: 72 h; read-out: IC50 wt-REC-1
How it was run: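 Luminescent viability read over 72 h, start-of-incubation signal recorded separately to separate growth from cell death. Percentage growth referenced to compound-free 0.3% DMSO wells; IC50 from 4-parameter logistic fit.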

REC-1 T474I cell lines = experiment: Cell proliferation assay REC-1 BTK T474I knock-in cells (ATPlite, 72 hours); format: cell-based; conditions: Homo sapiens, Rec1; 72 hours; read-out: IC50 REC-1 T474I
How it was run: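 REC-1 cells carrying CRISPR knock-in mutant BTK, single-cell cloned and sequence-confirmed, were exposed to compound for 72 h and read by ATPlite luminescence. Percentage growth was calculated against the signal at the start of incubation and against untreated 0.3% DMSO wells as maximum growth.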

BTK T474S = BTK T474S (Homo sapiens (Human), UniProt Q06187, T474S); experiment: Binding kinetics measurements (Surface Plasmon Resonance) on BTK T474S; conditions: SPR binding kinetics, BTK T474S; read-out: Tau (h) BTK T474S (Act); target residence time (converted)
Sequence of BTK T474S (Q06187 whole entry T474S): as the sequence (Q06187 whole entry T474I) above, with I474S counted along it
Procedure: as §1

SMILES	Tau (h) BTK T474I (Act) (BTK T474I) [h]	IC50 [1] [nM]	IC50 [2] [nM]	Tau (h) wt-BTK (Act) (wt-BTK) [h]	IC50 [3] [nM]	Tau (h) BTK C418S (Act) (BTK C481S) [h]	IC50 [4] [nM]	IC50 (REC-1 T474I cell lines) [nM]	Kd (BTK T474I)	Kd (wt-BTK) [nM]	residence time (BTK T474S) [h]	Kd (BTK C481S) [nM]
N#Cc1ccnc(NC(=O)c2ccc(-c3nc4n5c(cnc(N)c35)/C=C/COCCC(=O)N[C@@H]3CC[C@@H]4C3)cc2)c1 [Example 199]	0.54	< 5	< 100	1.69	< 5	1.28	< 100	500 to 10000	–	–	–	–
COc1ccc(F)cc1C(=O)NCc1ccc(-c2nc3n4c(cnc(N)c24)/C=C/COCCC(=O)N[C@@H]2CCC[C@@H]3C2)cc1 [Example 211]	–	< 5	< 100	–	< 5	–	< 100	500 to 10000	10 to 50 nM and < 5 nM	< 5	–	–
Nc1ncc2n3c(nc(-c4ccc(C(=O)Nc5cc(C(F)(F)F)ccn5)cc4)c13)[C@@H]1CC[C@H](C1)NC(=O)CCOC/C=C/2 [Example 198]	1.44	< 5	< 100	4.28	< 5	18.16	< 100	–	–	–	–	–
N#Cc1ccnc(NC(=O)c2ccc(-c3nc4n5c(cnc(N)c35)/C=C/COCCC(=O)N[C@@H]3CCC[C@@H]4C3)cc2)c1 [Example 200]	0.77	< 5	< 100	2.12	< 5	2.23	< 100	500 to 10000	–	–	–	–
C[C@@H]1CC(=O)N[C@@H]2CC[C@H](C2)n2nc(-c3ccc(C(=O)Nc4cc(C#N)ccn4)cc3)c3c(N)ncc(c32)/C=C/CCN1 [Example 181]	–	< 5	< 100	2.95	< 5	–	< 100	500 to 10000	–	–	5.65	–
Nc1ncc2n3c(nc(-c4ccc(C(=O)Nc5cc(C(F)(F)F)ccn5)cc4)c13)[C@@H]1CC[C@H](C1)NC(=O)CCOCC/C=C/2 [Example 202]	2.16	< 5	< 100	2.20	< 5	3.15	< 100	< 100	–	–	–	–
N#Cc1ccnc(NC(=O)c2ccc(-c3nn4c5c(cnc(N)c35)/C=C/CCOCCC(=O)N[C@@H]3CC[C@@H]4C3)cc2)c1 [Example 185]	1.26	< 5	< 100	10.79	< 5	–	< 100	< 100	–	–	–	–
Nc1ncc2n3c(nc(-c4ccc(C(=O)Nc5cc(C(F)(F)F)ccn5)cc4)c13)[C@@H]1CC[C@H](C1)NC(=O)CCCCC/C=C/2 [Example 203]	4.17	< 5	< 100	5.73	< 5	–	< 100	< 100	–	–	–	–
Nc1ncc2c3c1c(-c1ccc(C(=O)Nc4cc(C(F)(F)F)ccn4)cc1)nn3[C@@H]1CCC[C@H](C1)NC(=O)CCCCCC2 [Example 114]	–	< 5	< 100	–	< 5	1.85	100 to 1000	500 to 10000	10 to 50 nM and < 5 nM	< 5	–	< 5
N#Cc1ccnc(NC(=O)c2ccc(-c3nc4n5c(cnc(N)c35)/C=C/CCOCCC(=O)N[C@@H]3CCC[C@@H]4C3)cc2)c1 [Example 205]	1.15	< 5	< 100	1.80	< 5	–	< 100	< 100	–	–	–	–
COc1ccc(F)cc1C(=O)NCc1ccc(-c2nc3n4c(cnc(N)c24)/C=C/CCOCCC(=O)N[C@@H]2CCC[C@@H]3C2)cc1 [Example 210]	0.68	< 5	< 100	1.22	< 5	–	< 100	< 100	< 2 nM	< 5	–	–
COc1ccnc(NC(=O)c2ccc(-c3nc4n5c(cnc(N)c35)/C=C/CCOCCC(=O)N[C@@H]3CC[C@@H]4C3)cc2)c1 [Example 217]	0.70	< 5	< 100	2.78	< 5	–	< 100	< 100	–	–	–	–
C[C@@H]1CC(=O)N[C@@H]2CC[C@H](C2)c2nc(-c3ccc(C(=O)Nc4cc(C(F)(F)F)ccn4)cc3)c3c(N)ncc(n23)/C=C/CCN1 [Example 207]	–	< 5	< 100	2.55	< 5	8.44	< 100	500 to 10000	< 2 nM	< 5	–	< 5
Nc1ncc2n3c(nc(-c4ccc(C(=O)Nc5cc(C(F)F)ccn5)cc4)c13)[C@@H]1CC[C@H](C1)NC(=O)CCOCC/C=C/2 [Example 222]	0.60	< 5	< 100	5.31	< 5	–	< 100	100 to 500	–	–	–	–
Nc1ncc2c3c1c(-c1ccc(C(=O)Nc4cc(C(F)(F)F)ccn4)cc1)nn3[C@@H]1COC[C@H](C1)NC(=O)CCOC/C=C/2 [Example 192]	1.40	< 5	< 100	3.61	< 5	–	< 100	< 100	< 2 nM	< 5	–	–
